# In ChEMBL document CHEMBL1150044, “Brominated polyacetylenes from the Philippines sponge Diplastrella sp” (J Nat Prod, 2003):
# Structures can show the parent of a compound that is named as a salt.
# Molecular target: Human immunodeficiency virus type 1 integrase (Human immunodeficiency virus 1, UniProt Q7ZJM1)
# Assay: Inhibition of HIV1 recombinant integrase
# Chain of Human immunodeficiency virus type 1 integrase (Q7ZJM1 whole entry): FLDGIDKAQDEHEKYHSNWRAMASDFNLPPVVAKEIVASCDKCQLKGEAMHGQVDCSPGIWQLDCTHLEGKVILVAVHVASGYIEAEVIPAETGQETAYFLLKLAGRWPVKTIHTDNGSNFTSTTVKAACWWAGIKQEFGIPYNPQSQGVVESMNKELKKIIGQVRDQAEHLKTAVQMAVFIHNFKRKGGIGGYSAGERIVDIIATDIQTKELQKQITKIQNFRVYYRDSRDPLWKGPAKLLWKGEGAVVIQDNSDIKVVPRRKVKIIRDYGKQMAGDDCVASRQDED
row,Structure (SMILES),IC50
1,OCC(O)C#CC#CCCCC/C=C/C#C/C=C/Br (stereo not drawn) [DIPLYNE E],> 156 µM
2,OCC(O)C#CC#CCCCCC#CC#C/C=C/Br (stereo not drawn) [DIPLYNE D],> 157 µM
3,O=S(=O)(O)OCC(O)C#CC#CCCCCCCC#C/C=C/Br (stereo not drawn),74.4 µM
4,O=S(=O)(O)OCCC#CC#CCCCCC#CC#C/C=C/Br,78.3 µM
5,OCC(O)C#CC#CCCCCCCCC/C=C/Br (stereo not drawn) [DIPLYNE C],> 153 µM
6,OCC(O)C#CC#CCCCCCCC#C/C=C\Br (stereo not drawn) [DIPLYNE B],> 155 µM

# Results, then the compound that gave them:
row,IC50,Structure (SMILES)
1,> 155 µM,OCC(O)C#CC#CCCCCCCC#C/C=C/Br (stereo not drawn) [DIPLYNE A]
2,73.7 µM,O=S(=O)(O)OCC(O)C#CC#CCCCCCCCC/C=C/Br (stereo not drawn) [DIPLYNE C SULFATE]
